According to patent publication US20130212744A1, “METHOD OF REDUCING INSECT-VECTORED VIRAL INFECTIONS” (priority 2010, published 2013):
Like-named read-outs stand apart in the source and are kept apart here.

How the values were obtained:
Format in all cases: in vivo
[1] = tested on: whitefly Bemisia tabaci nymphs; assay: Foliar use field trial on tomato, efficacy on whitefly nymphs; details: Bemisia tabaci, foliar
Procedure: (§1) Two studies were carried out in Elhasanya, Egypt in 2009 on tomato plants of the variety Fayrouz with the main goal to measure efficacy on the whitefly Bemisia tabaci. The plot size was 4.8 m^2 and 6 replicates were used in the trial. Products were applied 3 times on young tomato plants at BBCH stages 14, 17 and 51 at spray intervals between 12 and 19 days. The spray volume was at the first application 350 l/ha and later 500 l/ha. The evaluation of this study was done counting the adult whiteflies (Bemisia tabaci) as well as the nymphs and the eggs in each plot. In addition to the direct whitefly effect, visual symptoms of the virus, mainly TYLCV (tomato yellow leaf curl virus) were evaluated also.
(§2) ASM=Acibenzolar-S-methyl. WG 50=Actigard® 50WG, a water-dispersible granule with the active ingredient ASM CYNT=Cyantraniliprole. WG 40=Cyazypyr®, a water dispersable granule with the active ingredient CYNT. Results on whitefly adults. Trial 1

[2] = tested on: TYLCV (tomato yellow leaf curl virus); assay: Foliar use field trial on tomato, infected leaf area by TYLC virus
Procedure: as §1, §2
Evaluation of percentage of infected leaf area by TYLC virus (average of 45 plants evaluated per treatment) Trial 1

[3] = tested on: whitefly Bemisia tabaci adults; assay: Soil use (drench) field trial on tomato, efficacy on whitefly adults; details: for Emax at 100 g/ha: 100 g ai/ha; for Emax at 150 g/ha: 150 g ai/ha
Procedure: as §1, with “Two soil applied” for “Two”, “plants” for “plants of the variety Fayrouz”, “once” for “3 times”, “stage 14 as a drench.” for “stages 14, 17 and 51 at spray intervals between 12 and 19 days.”, “350” for “350 l/ha and later 500”

[4] = tested on: whitefly Bemisia tabaci nymphs; assay: Soil use (drench) field trial on tomato, efficacy on whitefly nymphs; details: for Emax at 100 g/ha: 100 g ai/ha; for Emax at 150 g/ha: 150 g ai/ha
Procedure: Two soil applied studies were carried out in Elhasanya, Egypt in 2009 on tomato plants with the main goal to measure efficacy on the whitefly Bemisia tabaci. The plot size was 4.8 m^2 and 6 replicates were used in the trial. […] The spray volume was at the first application 350 l/ha. The evaluation of this study was done counting the adult whiteflies (Bemisia tabaci) as well as the nymphs and the eggs in each plot. In addition to the direct whitefly effect, visual symptoms of the virus, mainly TYLCV (tomato yellow leaf curl virus) were evaluated also.

`CNC(=O)c1cc(C#N)cc(C)c1NC(=O)c1cc(Br)nn1-c1ncccc1Cl` [CYNT, 3-bromo-1-(3-chloro-2-pyridyl)-4′-cyano-2′-methyl-6′-(methylcarbamoyl)pyrazole-5-carboxanilide] showed an Emax ([1]; 75 g ai/hl, 5DAA2, Trial 1, read-out: % Efficacy on Nymphs) of 27%, an Emax ([1]; 75 g ai/hl, 5DAA2, Trial 2, read-out: % Efficacy on Nymphs) of 27% and an Emax ([1]; 75 g ai/hl, 5DAA3, Trial 1, read-out: % Efficacy on Nymphs) of 72%. It also gave an Emax ([1]; 75 g ai/hl, 5DAA3, Trial 2, read-out: % Efficacy on Nymphs) of 72%, an Emax ([1]; 75 g ai/hl, 10DAA2, Trial 1, read-out: % Efficacy on Nymphs) of 48% and an Emax ([1]; 75 g ai/hl, 10DAA2, Trial 2, read-out: % Efficacy on Nymphs) of 48%. For the same molecule, the Emax ([1]; 75 g ai/hl, 10DAA3, Trial 1, read-out: % Efficacy on Nymphs) was 65%, the Emax ([1]; 75 g ai/hl, 10DAA3, Trial 2, read-out: % Efficacy on Nymphs) was 65% and the Emax ([1]; 75 g ai/hl, 15DAA3, Trial 1, read-out: % Efficacy on Nymphs) was 60%. It also gave an Emax ([1]; 75 g ai/hl, 15DAA3, Trial 2, read-out: % Efficacy on Nymphs) of 60%, an Emax ([1]; 75 g ai/hl, 20DAA3, Trial 1, read-out: % Efficacy on Nymphs) of 48% and an Emax ([1]; 75 g ai/hl, 20DAA3, Trial 2, read-out: % Efficacy on Nymphs) of 48%. It also gave an Emax ([1]; 75 g ai/hl, Avg, Trial 1, read-out: % Efficacy on Nymphs Avg % C) of 53%, an Emax ([1]; 100 g ai/hl, 5DAA2, Trial 1, read-out: % Efficacy on Nymphs) of 73% and an Emax ([1]; 100 g ai/hl, 5DAA2, Trial 2, read-out: % Efficacy on Nymphs) of 73%. For the same molecule, the Emax ([1]; 100 g ai/hl, 5DAA3, Trial 1, read-out: % Efficacy on Nymphs) was 84%, the Emax ([1]; 100 g ai/hl, 5DAA3, Trial 2, read-out: % Efficacy on Nymphs) was 84% and the Emax ([1]; 100 g ai/hl, 10DAA2, Trial 1, read-out: % Efficacy on Nymphs) was 73%. The Emax ([1]; 100 g ai/hl, 10DAA2, Trial 2, read-out: % Efficacy on Nymphs) was 73%, the Emax ([1]; 100 g ai/hl, 10DAA3, Trial 1, read-out: % Efficacy on Nymphs) was 78% and the Emax ([1]; 100 g ai/hl, 10DAA3, Trial 2, read-out: % Efficacy on Nymphs) was 78%. It also gave an Emax ([1]; 100 g ai/hl, 15DAA3, Trial 1, read-out: % Efficacy on Nymphs) of 68%, an Emax ([1]; 100 g ai/hl, 15DAA3, Trial 2, read-out: % Efficacy on Nymphs) of 68% and an Emax ([1]; 100 g ai/hl, 20DAA3, Trial 1, read-out: % Efficacy on Nymphs) of 56%. For the same molecule, the Emax ([1]; 100 g ai/hl, 20DAA3, Trial 2, read-out: % Efficacy on Nymphs) was 56%, the Emax ([1]; 100 g ai/hl, Avg, Trial 1, read-out: % Efficacy on Nymphs Avg % C) was 72% and the “% Infected Surface area with virus / plant” value ([2]; 75 g ai/hl, 5DAA2, Trial 1) was 0.0%. For the same molecule, the “% Infected Surface area with virus / plant” value ([2]; 75 g ai/hl, 5DAA2, Trial 2) was 0.0%, the “% Infected Surface area with virus / plant” value ([2]; 75 g ai/hl, 5DAA3, Trial 1) was 3.0% and the “% Infected Surface area with virus / plant” value ([2]; 75 g ai/hl, 5DAA3, Trial 2) was 3.0%. The “% Infected Surface area with virus / plant” value ([2]; 75 g ai/hl, 10DAA3, Trial 1) was 5.1%, the “% Infected Surface area with virus / plant” value ([2]; 75 g ai/hl, 10DAA3, Trial 2) was 5.1% and the “% Infected Surface area with virus / plant” value ([2]; 75 g ai/hl, 15DAA3, Trial 1) was 7.1%. The “% Infected Surface area with virus / plant” value ([2]; 75 g ai/hl, 15DAA3, Trial 2) was 7.1%, the “% Infected Surface area with virus / plant” value ([2]; 75 g ai/hl, 20DAA3, Trial 1) was 9.8% and the “% Infected Surface area with virus / plant” value ([2]; 75 g ai/hl, 20DAA3, Trial 2) was 9.8%. For the same molecule, the “% Infected Surface area with virus / plant” value ([2]; 75 g ai/hl, 24DAA3, Trial 1) was 10.3%, the “% Infected Surface area with virus / plant” value ([2]; 75 g ai/hl, 24DAA3, Trial 2) was 10.3% and the “% Infected Surface area with virus / plant” value ([2]; 100 g ai/hl, 5DAA2, Trial 1) was 0.8%. For the same molecule, the “% Infected Surface area with virus / plant” value ([2]; 100 g ai/hl, 5DAA2, Trial 2) was 0.8%, the “% Infected Surface area with virus / plant” value ([2]; 100 g ai/hl, 5DAA3, Trial 1) was 1.9% and the “% Infected Surface area with virus / plant” value ([2]; 100 g ai/hl, 5DAA3, Trial 2) was 1.9%. The “% Infected Surface area with virus / plant” value ([2]; 100 g ai/hl, 10DAA3, Trial 1) was 3.1%, the “% Infected Surface area with virus / plant” value ([2]; 100 g ai/hl, 10DAA3, Trial 2) was 3.1% and the “% Infected Surface area with virus / plant” value ([2]; 100 g ai/hl, 15DAA3, Trial 1) was 3.9%. For the same molecule, the “% Infected Surface area with virus / plant” value ([2]; 100 g ai/hl, 15DAA3, Trial 2) was 3.9%, the “% Infected Surface area with virus / plant” value ([2]; 100 g ai/hl, 20DAA3, Trial 1) was 4.5% and the “% Infected Surface area with virus / plant” value ([2]; 100 g ai/hl, 20DAA3, Trial 2) was 4.5%. The “% Infected Surface area with virus / plant” value ([2]; 100 g ai/hl, 24DAA3, Trial 1) was 5.3%, the “% Infected Surface area with virus / plant” value ([2]; 100 g ai/hl, 24DAA3, Trial 2) was 5.3% and the Emax at 100 g/ha ([3]; 120 h, 5DAA, Trial 1) was 79%. It also gave an Emax at 100 g/ha ([3]; 120 h, 5DAA, Trial 2) of 70%, an Emax at 150 g/ha ([3]; 120 h, 5DAA, Trial 1) of 83% and an Emax at 150 g/ha ([3]; 120 h, 5DAA, Trial 2) of 76%. It also gave an Emax at 100 g/ha ([3]; 240 h, 10DAA, Trial 1) of 75%, an Emax at 100 g/ha ([3]; 240 h, 10DAA, Trial 2) of 71% and an Emax at 150 g/ha ([3]; 240 h, 10DAA, Trial 1) of 75%. For the same molecule, the Emax at 150 g/ha ([3]; 240 h, 10DAA, Trial 2) was 80%, the Emax at 100 g/ha ([3]; 360 h, 15DAA, Trial 1) was 78% and the Emax at 100 g/ha ([3]; 360 h, 15DAA, Trial 2) was 76%. The Emax at 150 g/ha ([3]; 360 h, 15DAA, Trial 1) was 79%, the Emax at 150 g/ha ([3]; 360 h, 15DAA, Trial 2) was 83% and the Emax at 100 g/ha ([3]; 480 h, 20DAA, Trial 1) was 72%. The Emax at 100 g/ha ([3]; 480 h, 20DAA, Trial 2) was 74%, the Emax at 150 g/ha ([3]; 480 h, 20DAA, Trial 1) was 74% and the Emax at 150 g/ha ([3]; 480 h, 20DAA, Trial 2) was 82%. It also gave an Emax at 100 g/ha ([3]; 600 h, 25DAA, Trial 1) of 66%, an Emax at 100 g/ha ([3]; 600 h, 25DAA, Trial 2) of 72% and an Emax at 150 g/ha ([3]; 600 h, 25DAA, Trial 1) of 69%. It also gave an Emax at 150 g/ha ([3]; 600 h, 25DAA, Trial 2) of 80%, an Emax at 100 g/ha ([3]; 720 h, 30DAA, Trial 1) of 61% and an Emax at 100 g/ha ([3]; 720 h, 30DAA, Trial 2) of 65%. It also gave an Emax at 150 g/ha ([3]; 720 h, 30DAA, Trial 1) of 67%, an Emax at 150 g/ha ([3]; 720 h, 30DAA, Trial 2) of 71% and an Emax at 100 g/ha ([3]; 840 h, 35DAA, Trial 1) of 53%. The Emax at 100 g/ha ([3]; 840 h, 35DAA, Trial 2) was 57%, the Emax at 150 g/ha ([3]; 840 h, 35DAA, Trial 1) was 59% and the Emax at 150 g/ha ([3]; 840 h, 35DAA, Trial 2) was 62%. For the same molecule, the Emax at 100 g/ha ([3]; 960 h, 40DAA, Trial 1) was 39%, the Emax at 100 g/ha ([3]; 960 h, 40DAA, Trial 2) was 43% and the Emax at 150 g/ha ([3]; 960 h, 40DAA, Trial 1) was 45%. It also gave an Emax at 150 g/ha ([3]; 960 h, 40DAA, Trial 2) of 45%, an Emax at 100 g/ha ([4]; 25DAA1, Trial 2) of 60% and an Emax at 100 g/ha ([4]; 30DAA1, Trial 2) of 34%. For the same molecule, the Emax at 100 g/ha ([4]; 35DAA1, Trial 2) was 63%, the Emax at 100 g/ha ([4]; 40DAA2, Trial 2) was 52% and the Emax at 150 g/ha ([4]; 25DAA1, Trial 2) was 78%. It also gave an Emax at 150 g/ha ([4]; 30DAA1, Trial 2) of 79%, an Emax at 150 g/ha ([4]; 35DAA1, Trial 2) of 77% and an Emax at 150 g/ha ([4]; 40DAA2, Trial 2) of 61%. It also gave an Emax at 100 g/ha ([4]; 240 h, 10DAA, Trial 1) of 67%, an Emax at 150 g/ha ([4]; 240 h, 10DAA, Trial 1) of 69% and an Emax at 100 g/ha ([4]; 360 h, 15DAA, Trial 1) of 65%. The Emax at 150 g/ha ([4]; 360 h, 15DAA, Trial 1) was 84%, the Emax at 100 g/ha ([4]; 480 h, 20DAA, Trial 1) was 59% and the Emax at 150 g/ha ([4]; 480 h, 20DAA, Trial 1) was 84%. It also gave an Emax at 100 g/ha ([4]; 600 h, 25DAA, Trial 1) of 39%, an Emax at 150 g/ha ([4]; 600 h, 25DAA, Trial 1) of 77% and an Emax at 100 g/ha ([4]; 720 h, 30DAA, Trial 1) of 28%. It also gave an Emax at 150 g/ha ([4]; 720 h, 30DAA, Trial 1) of 74%, an Emax at 100 g/ha ([4]; 840 h, 35DAA, Trial 1) of 24% and an Emax at 150 g/ha ([4]; 840 h, 35DAA, Trial 1) of 70%. For the same molecule, the Emax at 100 g/ha ([4]; 960 h, 40DAA, Trial 1) was 13% and the Emax at 150 g/ha ([4]; 960 h, 40DAA, Trial 1) was 64%.
